This experiment deals with T1, human M1 muscarinic acetylcholine receptors (Homo sapiens, UniProt P11229).
T1 sequence (P11229 1-460): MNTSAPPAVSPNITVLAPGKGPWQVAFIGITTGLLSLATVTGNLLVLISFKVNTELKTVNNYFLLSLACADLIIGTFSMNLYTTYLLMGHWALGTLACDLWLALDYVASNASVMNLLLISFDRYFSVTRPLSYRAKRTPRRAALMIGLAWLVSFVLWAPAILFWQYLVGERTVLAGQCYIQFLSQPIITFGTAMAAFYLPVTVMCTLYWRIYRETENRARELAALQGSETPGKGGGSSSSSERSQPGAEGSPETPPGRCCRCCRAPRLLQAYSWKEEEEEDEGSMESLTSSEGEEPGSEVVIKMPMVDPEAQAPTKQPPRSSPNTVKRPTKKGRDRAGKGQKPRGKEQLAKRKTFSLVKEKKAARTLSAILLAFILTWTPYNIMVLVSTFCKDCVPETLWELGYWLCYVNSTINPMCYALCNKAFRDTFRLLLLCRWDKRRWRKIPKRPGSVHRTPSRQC
In words: M1 FLIPR assay (PAM, intracellular calcium). Type of experiment: cell-based. Particulars: potentiation of EC10-EC30 acetylcholine, values marked a: geometric mean of ≧7 determinations, read-out: M1 PAM Inflection Point (μM) Geometric mean of 2-6 determinations (unless otherwise indicated). The protocol:
This assay was designed to select and characterize compounds that affect the activity of human M1 muscarinic acetylcholine receptors (Similar M1 PAM FLIPR assays can be found, for example, at U.S. Pat. No. 8,664,234). Human M1 receptors were stably expressed in Chinese hamster ovary (CHO) cells (HD Bioscience). The effect of test compounds on intracellular calcium was measured on an FLIPR Tetra (Molecular Devices) using the Fluo-8, AM calcium dye (Molecular Probes) with a red dye quenching agent (Sigma).
CHO cells expressing hM1 cells had been previously cultured and frozen in assay ready vials. Cell vials were thawed, then plated at a density of 10,000 cells per well in a 384 well black wall, clear bottom plate (Greiner #781090) and incubated overnight at 37 degrees C. with 5% CO2. Cells were grown and plated in F12 nutrient media (Gibco BRL #21700-075) supplemented with 10% FBS (Hyclone #CH30160.03) and Pen/Strep (Gibco #15070-063).
After overnight incubation, cell plates were removed from the incubator and the growth media was discarded and replaced with loading solution containing the following: 2 μM Fluo-8-AM (Molecular Probes #F14242), 2 mM Probenecid (Sigma #P8761), lx Acid Red 1 (Sigma #210633), in HBSS buffer containing (grams/L): 0.1 CaCl2, 0.1 MgCl2*6H2O, 0.049 MgSO4, 0.4 KCl, 0.06 KH2PO4, 8.06 NaCl, 0.12 Na2HPO4*12H2O, 1.1 D-glucose*H2O, 0.35 NaHCO3, 4.766 HEPES, pH 7.4. The plate was incubated in the loading solution at 37 degrees C. in the dark for 1 hour.
Test compounds were initially prepared as 100% DMSO stock solutions, then transferred and serially diluted in 384-well compound plates (Greiner #784201). Each compound was tested at 10 concentrations in duplicate per experiment. Positive and negative controls for positive allosteric modulator evaluation were 30 μM acetylcholine (Ach) and an EC10-EC30 concentration of acetylcholine, approximately 2 nM but could be adjusted for each experiment to maintain the EC10-EC30 range.
After the 1-hour dye loading incubation, test compounds were added to the cell plate containing Fluo-8. Approximately 10 minutes after compound addition, an EC10-EC30 concentration of acetylcholine was added to each well and the fluorescence measured to determine the PAM potentiation of the compound.
Data was exported from the FLIPR Tetra as maximum fluorescence/minimum fluorescence for each well. The percent effect for each compound well was determined using the mean values for the positive and negative controls on each plate for each read. Percent effect was 100*(compound negative control)/(positive control negative control). Dose response curves were fitted to the compound percent effect data using a 4-parameter logistic fit model to determine PAM (positive allosteric modulator) Inflection Point values. Compounds with inverted U dose response curves had the concentrations greater than the concentration giving the peak response excluded from the fit. Data was reported as Inflection Point. The compounds of Examples 1-72 had activity according to this assay, generally with an Inflection Point (IP) of 10 μM or less (using Inflection Point as a measure of activity). Such a result is indicative of the intrinsic activity of the compounds of the invention as M1 allosteric modulators.
On the technique in general: Calcium flux is commonly read through the fluorescence of an indicator in the cells.

As to `Cc1nc(-c2ccc(Cc3cc(C(=O)N[C@H]4CCOC[C@@H]4O)ncc3C)cc2)no1` [Example 19, N-[(3R,4S)-3-hydroxytetrahydro-2H-pyran-4-yl]-5-methyl-4-[4-(5-methyl-1,2,4-oxadiazol-3-yl)benzyl]pyridine-2-carboxamide], the EC50 stood at 5.57 µM. In the case of `CO[C@H]1CCCC[C@@H]1NC(=O)c1cc(Cc2ccc(-n3cccn3)cc2)c(C)cn1` [Example 22, N-[(1S,2S)-2-methoxycyclohexyl]-5-methyl-4-[4-(1H-pyrazol-1-yl)benzyl]pyridine-2-carboxamide], the EC50 is greater than 5.99 µM. Take `Cc1nc(-c2ccc(Cc3cc(C(=O)N[C@H]4CCCC[C@@H]4O)ncc3C)cc2)co1` [Example 23, N-[(1S,2S)-2-hydroxycyclohexyl]-5-methyl-4-[4-(2-methyl-1,3-oxazol-4-yl)benzyl]pyridine-2-carboxamide]: the EC50 came to 0.363 µM. Next, `Cc1cnc(NC(=O)c2cc(Cc3ccc(-n4cccn4)cc3)c(C)cn2)nc1` [Example 24, 5-methyl-N-(5-methylpyrimidin-2-yl)-4-[4-(1H-pyrazol-1-yl)benzyl]pyridine-2-carboxamide]: 4.39 µM; `COc1ccc(Cc2cc(C(=O)N[C@H]3CCCC[C@@H]3O)nc(C)c2Cl)cc1` [Example 25, 5-chloro-N-[(1S,2S)-2-hydroxycyclohexyl]-4-(4-methoxybenzyl)-6-methylpyridine-2-carboxamide]: 1.14 µM. On to `Cc1cnc(C(=O)N[C@H]2C[C@H](CO)C2)cc1Cc1ccc(-n2cccn2)cc1` [Example 26, N-[trans-3-(hydroxymethyl)cyclobutyl]-5-methyl-4-[4-(1H-pyrazol-1-yl)benzyl]pyridine-2-carboxamide], for which the EC50 worked out at 5.04 µM. Next, `Cc1cnc(C(=O)NCC2(O)CCCC2)cc1Cc1ccc(-n2cccn2)cc1` [Example 27, N-[(1-hydroxycyclopentyl)methyl]-5-methyl-4-[4-(1H-pyrazol-1-yl)benzyl]pyridine-2-carboxamide]: 1.55 µM; `Cc1cnc(C(=O)NC2CC3(COC3)C2)cc1Cc1ccc(-n2cccn2)cc1` [Example 28, 5-methyl-N-(2-oxaspiro[3.3]hept-6-yl)-4-[4-(1H-pyrazol-1-yl)benzyl]pyridine-2-carboxamide]: 4.77 µM.

In the case of `Cc1cnc(C(=O)N[C@H]2CC[C@@H](O)CC2)cc1Cc1ccc(-n2cccn2)cc1` [Example 29, N-(cis-4-hydroxycyclohexyl)-5-methyl-4-[4-(1H-pyrazol-1-yl)benzyl]pyridine-2-carboxamide], the EC50 was 3.82 µM.

As to `Cc1cnc(C(=O)N[C@H]2C[C@@](C)(O)C2)cc1Cc1ccc(-n2cccn2)cc1` [Example 30], the EC50 is 1.12 µM. To `Cc1noc(CNC(=O)c2cc(Cc3ccc(-n4cccn4)cc3)c(C)cn2)n1` [Example 31, 5-methyl-N-[(3-methyl-1,2,4-oxadiazol-5-yl)methyl]-4-[4-(1H-pyrazol-1-yl)benzyl]pyridine-2-carboxamide] belongs 8.63 µM; to `Cc1cnc(C(=O)NCC2CCOCC2)cc1Cc1ccc(-n2cccn2)cc1` [Example 32, 5-methyl-4-[4-(1H-pyrazol-1-yl)benzyl]-N-(tetrahydro-2H-pyran-4-ylmethyl)pyridine-2-carboxamide], 4.6 µM. To `Cc1cnc(C(=O)NC2CCOCC2)cc1Cc1ccc(-n2cccn2)cc1` [Example 33, 5-methyl-4-[4-(1H-pyrazol-1-yl)benzyl]-N-(tetrahydro-2H-pyran-4-yl)pyridine-2-carboxamide] belongs 3.44 µM. As to `Cc1cnc(C(=O)NCC2CCCO2)cc1Cc1ccc(-n2cccn2)cc1` (stereo not drawn) [Example 35, 5-methyl-4-[4-(1H-pyrazol-1-yl)benzyl]-N-(tetrahydrofuran-2-ylmethyl)pyridine-2-carboxamide], the EC50 is 2.73 µM. To `Cc1cnc(C(=O)NC[C@H](C)O)cc1Cc1ccc(-n2cccn2)cc1` [Example 36, N-[(2S)-2-hydroxypropyl]-5-methyl-4-[4-(1H-pyrazol-1-yl)benzyl]pyridine-2-carboxamide] belongs 6.65 µM; to `Cc1cnc(C(=O)N[C@@H]2CCCCNC2=O)cc1Cc1ccc(-n2cccn2)cc1` [Example 37, 5-methyl-N-[(3R)-2-oxoazepan-3-yl]-4-[4-(1H-pyrazol-1-yl)benzyl]pyridine-2-carboxamide], 3.56 µM; to `Cc1cnc(C(=O)N[C@H](CO)C(C)C)cc1Cc1ccc(-n2cccn2)cc1` [Example 38, N-[(2S)-1-hydroxy-3-methylbutan-2-yl]-5-methyl-4-[4-(1H-pyrazol-1-yl)benzyl]pyridine-2-carboxamide], 3.63 µM.

For the molecule `CC[C@@H](CO)NC(=O)c1cc(Cc2ccc(-n3cccn3)cc2)c(C)cn1` [Example 39, N-[(2S)-1-hydroxybutan-2-yl]-5-methyl-4-[4-(1H-pyrazol-1-yl)benzyl]pyridine-2-carboxamide], the EC50 came out at 4.83 µM. To `Cc1cnc(C(=O)NCC2CC2)cc1Cc1ccc(-n2cccn2)cc1` [Example 40, N-(cyclopropylmethyl)-5-methyl-4-[4-(1H-pyrazol-1-yl)benzyl]pyridine-2-carboxamide] belongs 9.64 µM; to `Cc1cnc(C(=O)NCC(=O)N(C)C)cc1Cc1ccc(-n2cccn2)cc1` [Example 41, N-[2-(dimethylamino)-2-oxoethyl]-5-methyl-4-[4-(1H-pyrazol-1-yl)benzyl]pyridine-2-carboxamide], 8.03 µM. Take `Cc1cnc(C(=O)NCc2ccon2)cc1Cc1ccc(-n2cccn2)cc1` [Example 42, 5-methyl-N-(1,2-oxazol-3-ylmethyl)-4-[4-(1H-pyrazol-1-yl)benzyl]pyridine-2-carboxamide]: the EC50 came out at 8.13 µM.

For `Cc1cnc(C(=O)NC[C@H]2CCCO2)cc1Cc1ccc(-n2cccn2)cc1` [Example 43, 5-methyl-4-[4-(1H-pyrazol-1-yl)benzyl]-N-[(2R)-tetrahydrofuran-2-ylmethyl]pyridine-2-carboxamide], the EC50 amounted to 9.25 µM. To `Cc1cnc(C(=O)NCC2(O)CCC2)cc1Cc1ccc(-n2cccn2)cc1` [Example 44, N-[(1-hydroxycyclobutyl)methyl]-5-methyl-4-[4-(1H-pyrazol-1-yl)benzyl]pyridine-2-carboxamide] belongs 2.7 µM; to `Cc1cnc(C(=O)NCC2CCO2)cc1Cc1ccc(-n2cccn2)cc1` (stereo not drawn) [Example 45, 5-methyl-N-(oxetan-2-ylmethyl)-4-[4-(1H-pyrazol-1-yl)benzyl]pyridine-2-carboxamide], 7.21 µM; to `Cc1cnc(C(=O)NC2CCC(F)(F)C2)cc1Cc1ccc(-n2cccn2)cc1` (stereo not drawn) [Example 48, N-(3,3-difluorocyclopentyl)-5-methyl-4-[4-(1H-pyrazol-1-yl)benzyl]pyridine-2-carboxamide], 3.5 µM. On to `COc1ccc(Cc2cc(C(=O)N[C@H]3CCCC[C@@H]3O)ncc2C)cc1` [Example 50, N-[(1S,2S)-2-hydroxycyclohexyl]-4-(4-methoxybenzyl)-5-methylpyridine-2-carboxamide], for which the EC50 turned out to be 3.48 µM. Take `Cc1cnc(C(=O)N[C@H]2CCCC[C@@H]2O)cc1Cc1ccc(Cl)nc1` [Example 51, 4-[(6-chloropyridin-3-yl)methyl]-N-[(1S,2S)-2-hydroxycyclohexyl]-5-methylpyridine-2-carboxamide]: the EC50 is 2.83 µM.

(Values after patent US20160016907A1, “PYRIDINE DERIVATIVES AS MUSCARINIC M1 RECEPTOR POSITIVE ALLOSTERIC MODULATORS” (PFIZER INC., priority 2014, published 2016).)
